Columns and labels:
[1] = target: Serine/threonine-protein kinase pim-2 (Homo sapiens, UniProt Q9P1W9); assay: PIM-2 Enzyme Assay: The assay for the determination of PIM activity is based on the incorporation of [33P] ATP into PIM2tide substrate and capture of the radiolabeled peptide onto a Whatman P81 (phosphocellulose) filter plate. Assay mixtures contained 4 uM [gamma-33P] ATP (20 uCi/mL), 1.0 uM PIM2tide and […] PIM-2 in place of PIM-1.
[2] = target: Serine/threonine-protein kinase pim-3 (Rattus norvegicus, UniProt O70444); assay: PIM-3 Enzyme Assay: The assay for the determination of PIM activity is based on the incorporation of [33P] ATP into PIM2tide substrate and capture of the radiolabeled peptide onto a Whatman P81 (phosphocellulose) filter plate. Assay mixtures contained 30 uM [gamma-33P] ATP (20 uCi/mL), 3.75 uM PIM2tide and 0.5 nM recombinant rat PIM-3 in place of PIM-1.

Sequence of Serine/threonine-protein kinase pim-2 (Q9P1W9 whole entry): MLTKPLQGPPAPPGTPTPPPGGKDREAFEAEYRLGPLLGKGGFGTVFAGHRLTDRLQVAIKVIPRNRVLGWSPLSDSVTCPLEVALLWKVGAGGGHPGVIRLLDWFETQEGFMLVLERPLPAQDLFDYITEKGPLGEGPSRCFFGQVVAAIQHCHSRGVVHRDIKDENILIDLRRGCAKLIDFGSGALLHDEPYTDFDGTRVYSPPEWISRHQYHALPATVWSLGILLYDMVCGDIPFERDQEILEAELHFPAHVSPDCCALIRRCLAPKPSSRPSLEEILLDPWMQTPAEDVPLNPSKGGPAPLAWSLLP

IC50 [1]: ≥ 10000 nM | IC50 [2]: 448 nM
Structure (SMILES): CC1(C)CC(Nc2cccc3ccc(-c4nnc5ccccn45)nc23)CC(C)(C)N1

Reference: ChEMBL document CHEMBL3639321, “Triazolopyridine compounds as PIM kinase inhibitors” (2013)
